Test results reported in US8735388B2, “Heterocyclic compounds with affinity to muscarinic receptors” (Abbvie B. V. A., priority 2007, dated 2014).
Where two headings read alike, the source gives them in different places.

How the values were obtained:
[1] = biological target: T1, Muscarine M4 (GPCR-A-MA-ACH M4) (Homo sapiens, UniProt P08173); experiment: Muscarine M4 receptor binding, 3H-Oxotremorine
T1 construct: expressed in transfected cells; host or cells: CHO cells
T1 sequence (P08173 1-479): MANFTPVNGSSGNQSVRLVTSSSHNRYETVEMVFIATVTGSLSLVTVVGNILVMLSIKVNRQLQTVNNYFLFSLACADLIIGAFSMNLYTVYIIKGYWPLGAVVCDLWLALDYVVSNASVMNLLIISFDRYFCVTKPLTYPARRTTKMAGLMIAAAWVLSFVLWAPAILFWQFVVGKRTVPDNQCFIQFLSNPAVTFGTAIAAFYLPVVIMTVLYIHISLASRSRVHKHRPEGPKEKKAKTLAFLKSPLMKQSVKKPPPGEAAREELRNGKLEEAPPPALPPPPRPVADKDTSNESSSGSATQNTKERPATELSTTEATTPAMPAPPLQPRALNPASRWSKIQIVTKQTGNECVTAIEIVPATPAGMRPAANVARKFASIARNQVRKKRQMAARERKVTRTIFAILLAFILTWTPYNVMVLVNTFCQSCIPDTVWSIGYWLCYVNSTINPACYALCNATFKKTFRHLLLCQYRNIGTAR
In short: (§1)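 Human M1 ([3H]-pirenzepine), M3, and M4 ([3H]-4DAMP or [3H]-oxotremorine) receptor preparations incubated with radioligand and compound, first at 10 μM, then at 10-fold lower concentrations if inhibition exceeded 40%. Bound ligand separated by glass-fibre filtration and counted by scintillation. IC50 from Hill fit, converted to Ki via Cheng-Prusoff, reported as pKi.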

[2] = biological target: T1, Muscarine M4 (GPCR-A-MA-ACH M4); experiment: Muscarine M4 receptor binding, 3H-4DAMP; conditions: human M4, CHO cells, ligand 0.2 nM, 60 min/22° C., read-out: RB Musc. M4 3H-DAMP pKi (converted)
In short: as §1

[3] = biological target: T2, Muscarine M1 (GPCR-A-MA-ACH M1) (Homo sapiens, UniProt P11229); experiment: Muscarine M1 receptor binding, 3H-Pirenzepine; conditions: human M1, CHO cells, ligand 2 nM, 60 min/22° C., read-out: RB Musc. M1 3H-Pirenzepine pKi (converted)
T2 construct: expressed in transfected cells; host or cells: CHO cells
T2 sequence (P11229 1-460): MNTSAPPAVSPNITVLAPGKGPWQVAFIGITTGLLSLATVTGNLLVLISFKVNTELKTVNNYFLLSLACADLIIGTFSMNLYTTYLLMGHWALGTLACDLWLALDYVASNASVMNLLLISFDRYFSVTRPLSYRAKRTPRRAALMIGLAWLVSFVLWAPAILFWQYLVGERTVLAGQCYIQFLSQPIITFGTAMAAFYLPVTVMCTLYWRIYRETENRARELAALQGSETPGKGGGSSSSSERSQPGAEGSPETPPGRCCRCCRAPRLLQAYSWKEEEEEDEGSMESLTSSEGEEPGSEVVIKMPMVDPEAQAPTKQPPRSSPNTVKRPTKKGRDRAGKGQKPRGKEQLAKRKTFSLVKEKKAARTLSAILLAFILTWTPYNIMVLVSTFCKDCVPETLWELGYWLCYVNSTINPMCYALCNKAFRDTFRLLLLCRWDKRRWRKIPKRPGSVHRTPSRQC
In short: as §1

[4] = biological target: T1, Muscarine M4 (GPCR-A-MA-ACH M4); experiment: Muscarine M4 cell-based functional assay (CHO cells, Ca2+ - Aequorin luminescence)
In short: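 CHO cells expressing human M4 were exposed to compound, with Ca2+ response read by aequorin luminescence. Compounds were first tested at 1 μM, then at 10-fold lower concentrations if active; stimulation or inhibition was relative to the reference agonist. EC50/IC50 came from Hill-equation fits.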

[5] = Stability in human liver homogenate (metabolic stability in vitro); assay type: in vitro ADME; conditions: read-out: t ½
Excerpt: DÖRJE, F., WESS, J., LAMBRECHT, G., TACKE, R., […], E. and BRANN, M. R. (1991) Antagonist binding profiles of five cloned human muscarinic receptor subtypes. J. Pharmacol. Exp. Ther., 256: 727-733. • […], M. H. (1990) Rat hippocampal muscarinic autoreceptors are similar to the M2 (cardiac) subtype: comparison with hippocampal M1, atrial M2 and ileal M3 receptors. Brit. J. Pharmacol., 99: 753-761. • PERALTA, E. G., ASHKENAZI, A., WINSLOW, J. W., SMITH, D. H., […], J. and CAPON, D. J. (1987) Distinct primary structures, ligand-binding properties and tissue-specific expression of four human muscarinic acetylcholine receptors. EMBO. J., 6: 3923-3929. Determination of Metabolic Stability (In Vitro)
Method used according to procedures described by DI, L. et al., Journal of Biomolecular Screening, Vol. 8, No. 4, 453-462 (2003).

[6] = biological target: T2, Muscarine M1 (GPCR-A-MA-ACH M1); experiment: Muscarine M1 cell-based functional assay (CHO cells, Ca2+ - FLIPR Fluorimetry); conditions: read-out: Cell funct. Musc. M1 Agonism pEC50 (converted)
[7] = biological target: T3, Muscarine M3 (GPCR-A-MA-ACH M3) (Cavia porcellus, UniProt H0W1Z3); experiment: Muscarine M3 functional assay, isolated organ (ileum), agonist and antagonist mode; parameters: species or system Guinea Pig; conditions: for EC50: read-out: Cell funct. Musc. M3 Agonism pEC50 (converted)
T3 construct: from tissue; host or cells: guinea pig ileum

[8] = biological target: T4, Muscarine M2 (GPCR-A-MA-ACH M2) (Cavia porcellus, UniProt H0VRN8); experiment: Muscarine M2 functional assay, isolated organ (left atrium, electrically paced), agonist and antagonist mode; parameters: species or system Guinea Pig; conditions: for EC50: read-out: Cell funct. Musc. M2 Agonism pEC50 (converted)
T4 construct: from tissue; host or cells: guinea pig left atrium (electrically paced)
T4 sequence (H0VRN8 1-466): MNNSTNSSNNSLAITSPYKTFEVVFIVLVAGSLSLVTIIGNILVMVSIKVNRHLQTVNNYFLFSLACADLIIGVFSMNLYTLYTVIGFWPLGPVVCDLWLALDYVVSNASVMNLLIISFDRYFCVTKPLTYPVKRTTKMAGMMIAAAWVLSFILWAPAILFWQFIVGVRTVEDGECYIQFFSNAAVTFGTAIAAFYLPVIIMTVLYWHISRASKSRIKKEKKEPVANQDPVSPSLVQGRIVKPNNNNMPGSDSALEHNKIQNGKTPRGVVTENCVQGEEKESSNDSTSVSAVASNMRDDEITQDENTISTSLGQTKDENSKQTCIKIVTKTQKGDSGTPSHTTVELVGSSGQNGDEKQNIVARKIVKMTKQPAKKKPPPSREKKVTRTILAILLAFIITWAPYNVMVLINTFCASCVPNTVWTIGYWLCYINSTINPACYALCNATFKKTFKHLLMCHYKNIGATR

[9] = biological target: T5, Muscarine M2 (GPCR-A-MA-ACH M2) (Homo sapiens, UniProt P08172); experiment: Muscarine M2 receptor binding
T5 construct: expressed in transfected cells; host or cells: CHO cells
T5 sequence (P08172 1-466): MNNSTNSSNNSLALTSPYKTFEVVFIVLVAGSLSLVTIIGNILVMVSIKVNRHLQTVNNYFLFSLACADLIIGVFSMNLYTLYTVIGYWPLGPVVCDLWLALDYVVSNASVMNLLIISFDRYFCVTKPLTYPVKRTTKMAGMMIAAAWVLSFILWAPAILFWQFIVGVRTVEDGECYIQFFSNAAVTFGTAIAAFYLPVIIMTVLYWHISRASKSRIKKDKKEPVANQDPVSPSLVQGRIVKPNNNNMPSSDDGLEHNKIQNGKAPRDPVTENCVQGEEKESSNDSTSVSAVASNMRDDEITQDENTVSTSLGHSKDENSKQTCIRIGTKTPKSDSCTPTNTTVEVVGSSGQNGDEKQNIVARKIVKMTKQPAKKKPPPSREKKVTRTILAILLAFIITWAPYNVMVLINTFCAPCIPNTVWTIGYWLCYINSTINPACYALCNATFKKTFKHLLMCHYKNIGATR

[10] = biological target: T6, Muscarine M3 (GPCR-A-MA-ACH M3) (Homo sapiens, UniProt P20309); experiment: Muscarine M3 receptor binding
T6 construct: expressed in transfected cells; host or cells: CHO cells

[11] = human M4, CHO cells, receptor binding, ligand 6 nM, 30 min/25° C., read-out: RB Musc. M4 3H-Oxotremorine pKi (converted)
[12] = human M4, CHO cells, agonist mode, reference agonist oxotremorine, read-out: Cell funct. Musc. M4 Agonism pEC50 (converted)
[13] = human M1, CHO cells, agonist mode, reference agonist acetylcholine

T3 sequence (H0W1Z3 1-590): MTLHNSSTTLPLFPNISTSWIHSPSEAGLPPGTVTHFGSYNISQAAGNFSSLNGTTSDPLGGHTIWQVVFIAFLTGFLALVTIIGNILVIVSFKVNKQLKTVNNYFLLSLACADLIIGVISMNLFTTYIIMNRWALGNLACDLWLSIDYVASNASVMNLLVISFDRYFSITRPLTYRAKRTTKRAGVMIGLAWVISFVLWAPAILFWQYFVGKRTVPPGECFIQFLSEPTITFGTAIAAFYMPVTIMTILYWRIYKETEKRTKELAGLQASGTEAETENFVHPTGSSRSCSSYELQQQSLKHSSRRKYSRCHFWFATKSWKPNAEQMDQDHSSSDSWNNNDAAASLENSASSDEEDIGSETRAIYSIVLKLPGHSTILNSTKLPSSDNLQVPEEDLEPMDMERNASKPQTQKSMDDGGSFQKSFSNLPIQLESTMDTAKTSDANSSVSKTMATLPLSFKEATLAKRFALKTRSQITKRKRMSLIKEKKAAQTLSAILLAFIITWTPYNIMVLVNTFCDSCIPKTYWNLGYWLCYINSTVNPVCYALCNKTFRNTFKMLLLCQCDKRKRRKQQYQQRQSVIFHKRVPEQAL
T6 sequence (P20309 whole entry): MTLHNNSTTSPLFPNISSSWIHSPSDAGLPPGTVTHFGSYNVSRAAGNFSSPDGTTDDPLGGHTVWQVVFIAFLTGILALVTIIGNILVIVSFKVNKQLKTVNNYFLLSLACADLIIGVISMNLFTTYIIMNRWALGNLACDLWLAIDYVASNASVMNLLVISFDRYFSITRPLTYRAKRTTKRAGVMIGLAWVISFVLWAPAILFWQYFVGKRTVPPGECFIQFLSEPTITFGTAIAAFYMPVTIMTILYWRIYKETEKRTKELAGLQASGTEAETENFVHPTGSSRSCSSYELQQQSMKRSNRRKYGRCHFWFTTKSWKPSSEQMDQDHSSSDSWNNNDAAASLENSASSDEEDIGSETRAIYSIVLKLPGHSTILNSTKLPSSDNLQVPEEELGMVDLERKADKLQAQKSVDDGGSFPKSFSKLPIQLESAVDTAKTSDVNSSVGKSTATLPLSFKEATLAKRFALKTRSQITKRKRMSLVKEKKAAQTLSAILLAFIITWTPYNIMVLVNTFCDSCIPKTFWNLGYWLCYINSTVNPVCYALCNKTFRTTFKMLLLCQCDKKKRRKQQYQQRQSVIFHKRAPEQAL

| SMILES | melting point | Ki [1, 11] | Ki [2] | Ki [3] | EC50 [4, 12] | half-life [5] | EC50 [6, 13] | Ki [1] | EC50 [6] | EC50 [4] | Kb [7] | EC50 [7] | Kb [8] | EC50 [8] | Ki [9] | Ki [10] | Kb ([8]; read-out: Cell funct. Musc. M2 Antagonism pA2 (converted)) | Ki ([9]; human M2, CHO cells, receptor binding) | Ki ([10]; human M3, CHO cells, receptor binding) |
| --- | --- | --- | --- | --- | --- | --- | --- | --- | --- | --- | --- | --- | --- | --- | --- | --- | --- | --- | --- |
| CSc1c[nH]nc1C1=CCCN(C)C1 [Compound 22A, 3-(4-Methylsulfanyl-1H-pyrazol-3-yl)-1,2,5,6-tetrahydro-1-methylpyridine] | 131.5 °C | 251 nM | 398 nM | 1580 nM | > 10000 nM | – | – | – | – | – | – | – | – | – | – | – | – | – | – |
| CN1CCC=C(c2n[nH]cc2SCCCC(F)(F)F)C1 [Compound 22B, 3-[4-(4,4,4-trifluoro-butylsulfanyl)-1H-pyrazol-3-yl]-1,2,5,6-tetrahydro-1-methylpyridine] | – | 398 nM | 126 nM | 501 nM | 501 nM | 52 min | 79.4 nM | – | – | – | – | – | – | – | – | – | – | – | – |
| CCSc1c[nH]nc1C1=CCCN(C)C1 [Compound 22D, 3-(4-Ethylsulfanyl-1H-pyrazol-3-yl)-1,2,5,6-tetrahydro-1-methylpyridine] | 95 to 97 °C | 316 nM | 398 nM | 1580 nM | > 10000 nM | – | – | – | – | – | – | – | – | – | – | – | – | – | – |
| CCCSc1c[nH]nc1C1=CCCN(C)C1 [Compound 22E, 3-(4-Propylsulfanyl-1H-pyrazol-3-yl)-1,2,5,6-tetrahydro-1-methylpyridine] | 111 °C | 100 nM | 316 nM | 398 nM | > 10000 nM | – | – | – | – | – | – | – | – | – | – | – | – | – | – |
| CCCCSc1c[nH]nc1C1=CCCN(C)C1 [Compound 22F, 3-(4-Butylsulfanyl-1H-pyrazol-3-yl)-1,2,5,6-tetrahydro-1-methylpyridine] | 120 to 121 °C | 63.1 nM | 39.8 nM | 316 nM | 126 nM | – | 200 nM | – | – | – | – | – | – | – | – | – | – | – | – |
| CCCCCSc1c[nH]nc1C1=CCCN(C)C1 [Compound 22G, 3-(4-Pentylsulfanyl-1H-pyrazol-3-yl)-1,2,5,6-tetrahydro-1-methylpyridine] | 100 to 101 °C | 200 nM | 50.1 nM | 200 nM | 316 nM | 50 min | 39.8 nM | – | – | – | – | – | – | – | – | – | – | – | – |
| CCCCSc1c[nH]nc1C1CN2CCC1CC2 (stereo not drawn) [Compound 49A, 3-(4-Butylsulfanyl-1H-pyrazol-3-yl)-1-azabicyclo[2.2.2]octane] | 162 to 164 °C | – | 15.8 nM | 126 nM | – | – | – | 25.1 nM | 10 nM | 39.8 nM | – | – | – | – | – | – | – | – | – |
| CCCCCSc1c[nH]nc1C1CN2CCC1CC2 (stereo not drawn) [Compound 49B, 3-(4-Pentylsulfanyl-1H-pyrazol-3-yl)-1-azabicyclo[2.2.2]octane] | 142 to 145 °C | – | 25.1 nM | 158 nM | – | – | – | 7.94 nM | 10 nM | 6.31 nM | > 1000 nM | > 1000 nM | > 1000 nM | > 1000 nM | 631 nM | 63.1 nM | – | – | – |
| CSc1c[nH]nc1C1CN2CCC1CC2 (stereo not drawn) [Compound 49C, 3-(4-Methylsulfanyl-1H-pyrazol-3-yl)-1-azabicyclo[2.2.2]octane] | 145 to 147 °C | – | 126 nM | 1000 nM | – | – | – | 126 nM | 79.4 nM | 501 nM | – | – | – | – | – | – | – | – | – |
| CCCCCCSc1c[nH]nc1C1CN2CCC1CC2 (stereo not drawn) [Compound 49F, 3-(4-Hexylsulfanyl-1H-pyrazol-3-yl)-1-azabicyclo[2.2.2]octane] | 130 °C | – | 50.1 nM | 251 nM | – | – | – | 12.6 nM | 794 nM | 12.6 nM | > 1000 nM | > 1000 nM | > 1000 nM | > 1000 nM | 398 nM | 100 nM | – | – | – |
| CC(C)CCSc1c[nH]nc1C1CN2CCC1CC2 (stereo not drawn) [Compound 49H, 3-[4-(3-Methyl-butylsulfanyl)-1H-pyrazol-3-yl]-1-azabicyclo[2.2.2]octane] | 157 to 159 °C | – | 39.8 nM | 158 nM | – | – | – | 31.6 nM | 50.1 nM | > 10000 nM | – | – | – | – | – | – | – | – | – |
| CCCCCCSc1nc[nH]c1C1=CCCN(C)C1 [Compound 76B, 3-(5-Hexylsulfanyl-3H-imidazol-4-yl)-1,2,5,6-tetrahydro-1-methylpyridine] | – | 1000 nM | 501 nM | 3980 nM | 1000 nM | – | 79.4 nM | – | – | – | > 1000 nM | > 1000 nM | – | > 1000 nM | – | – | > 1000 nM | 6310 nM | 2510 nM |
